Source: patent publication US20130237557A1, “TREATMENT” (UCL BUSINESS PLC, priority 2010, published 2013)
“Also recorded” adds a separate entry of the source.

How the values were obtained:
sham operated rat [1] = experiment: Haemodynamics in sham operated rats treated with alpha 2a antagonist; type: in vivo
Procedure: (§1) 29 bile duct ligated rats and 17 sham operated rats were studied at the end of four weeks. The animals were randomised to receive a placebo (saline) or an alpha 2a antagonist (BRL 44408, Sigma, UK). The dose applied was 10 mgs/Kg by sub cutaneous injection: two doses were delivered 24 hours prior to study.
(§2) Mean arterial pressure was measured via a transducer through the left carotid artery. Portal pressure readings were taken by direct puncture of portal vein and transducer. Portal vein and hepatic artery flow measurements were done with a transonic flow probe and meter. All measurements were done in triplicates and recorded in data collection sheets.
(§3) Data are shown as median (range) or mean±standard error (SEM). Two tailed unpaired t-test was used to define difference between the means of normally distributed data of equal variance. For data that was not equally distributed, a Mann-Whitney test was used. Comparison of multiple groups was by analysis of variance (ANOVA) with a Bonferroni correction for multiple comparison.

[2] = tested on: bile duct ligated (BDL) rat; experiment: Plasma biochemistry in BDL rats (colorimetry, Cobas Integra); type: in vivo
From the text: (§4) These experiments utilised an established animal model of cirrhosis, the bile duct ligated (BDL) rat. BDL rats may be generated by methods known in the art. For example, male Sprague-Dawley rats (200-250 g) may be used for this procedure. Following anaesthetisation, a mid-line laparotamy may be performed, the bile duct exposed, triply ligated with 4.0 silk suture, and severed between the second and third ligature. The wound is then closed in layers with absorbable suture, and the animal allowed to recover in a quiet room before being returned to the animal storage facility.
as §1
(§5) Plasma biochemistry was measured by colorimetry using a Cobas Integra. Alpha 2a adrenergic receptor (ADRA 2a) and Nuclear Factor κ B (NFκB) protein expression were assessed by western blotting. ADRA2a expression was determined by immunohistochemistry.
as §3

[3] = tested on: Nuclear Factor κ B (NFκB); experiment: NFκB protein expression in liver tissue of BDL rats by western blotting; type: in vivo, rat; settings: vs untreated BDL
From the text: as §4, §1, §5
The protein expression was assessed by the western blotting technique. NFkB is an important regulator of cell signalling pathways including apoptosis and inflammation.

sham operated rat [4] = experiment: Plasma biochemistry in sham operated rats (colorimetry, Cobas Integra); type: in vivo; settings: sham rats treated vs sham operated rats
Procedure: as §1, §5, §3

[5] = tested on: bile duct ligated (BDL) rat; experiment: Brain water content in BDL rats; type: in vivo; settings: vs untreated BDL
From the text: as §4, §1
The brain water content signifies the amount of brain swelling that occurs as a result of inflammation in the brain.

[6] = tested on: bile duct ligated (BDL) rat; experiment: Haemodynamics in bile duct ligated (BDL) rats treated with alpha 2a antagonist; type: in vivo; settings: for mean arterial pressure (MAP): two doses 24 hours prior to study, vs placebo/untreated BDL; for hepatic arterial blood flow: vs BDL treated with saline, Transonic flow probe
From the text: as §4, §1, §2, §3

CC1c2ccccc2CN1CC1=NCCN1 (centres unmarked) [BRL 44408, 2-[(4,5-Dihydro-1H-imidazol-2-yl)methyl]-2,3-dihydro-1-methyl-1H-isoindole]
mean arterial pressure (MAP) (sham operated rat [1]; sham operated rats, 10 mgs/Kg sub cutaneous, treated vs untreated sham): no difference | hepatic arterial blood flow (sham operated rat [1]; sham operated rats, vs sham treated with saline): improvement | portal pressure (sham operated rat [1]; sham rats treated vs saline): no difference | intra hepatic resistance (sham operated rat [1]; sham rats treated vs sham rats): no difference | liver specific alanine aminotransferase (ALT) ([2]; p=0.5): non significant increase | plasma ammonia ([2]; vs untreated BDL): trend towards reduction; also recorded: reduced | plasma aspartate aminotransaminase (AST) ([2]; vs untreated BDL): significant reduction; also recorded: reduced | plasma lactate ([2]; vs untreated BDL): significant reduction | plasma lactate ([2]; vs untreated BDL, listed as BRL): significantly reduced | plasma creatinine ([2]; vs untreated BDL, marker for renal function): trend towards reduction; also recorded: improved; also recorded: reduced | NFkB protein expression in the liver tissue [3]: reduced | plasma creatinine (sham operated rat [4]): no difference | brain water content [5]: significantly decreased; also recorded: reduced | mean arterial pressure (MAP) ([6]; BDL rats, 10 mgs/Kg sub cutaneous): significantly improved; also recorded: increased | mean arterial pressure (MAP) ([6]; BDL rats, 10 mgs/Kg sub cutaneous, listed as ADRA2a antagonist): significant increase | portal pressure ([6]; BDL rats, 10 mgs/Kg sub cutaneous, two doses, treated group value (placebo 18.0±3.7), p<0.001): 11.4±3.4 mmHg | cardiac output ([6]; BDL rats, heart rate x stroke volume from echocardiogram, vs untreated BDL): improved significantly | intra hepatic resistance ([6]; BDL rats, post treatment value (untreated 1.1±0.2), p<0.05, portal pressure divided by hepatic blood flow): 0.5±0.1 mmHg/ml/min | portal pressure ([6]; BDL rats, vs BDL rats treated with saline, change in words): significantly reduced; also recorded: lowered | hepatic arterial blood flow ([6]; BDL rats): markedly increased | hepatic arterial blood flow ([6]; BDL rats, listed as BRL44408): improved | intra hepatic resistance ([6]; BDL rats, vs untreated BDL, change in words): significantly reduced; also recorded: lowered | portal venous blood flow ([6]; treated group vs placebo): without significant change
